# According to PubChem BioAssay (NCI):
#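 Cells were grown in 96-well plates and exposed to each compound for 48 hours at five concentrations; endpoints were interpolated linearly between bracketing concentrations, or set to the highest concentration if not reached. Here, GI50 denotes the concentration required for 50% inhibition of growth. TGI: concentration producing complete growth inhibition.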
# Legend:
# Experiment in all cases: NCI-60 cell line screen, 48 h
# [1] = test system: K-562 leukemia
# [2] = test system: TK-10 renal
# [3] = test system: MDA-MB-435
# [4] = test system: KM12 colon
# [5] = test system: NCI-H226 lung
# [6] = test system: UACC-257 melanoma
# [7] = test system: HCC-2998 colon
# [8] = test system: SK-MEL-5 melanoma
# [9] = test system: CCRF-CEM leukemia
# [10] = test system: SR leukemia
SMILES,GI50 [1] [µM],TGI [1] [µM],GI50 [2] [µM],TGI [2] [µM],GI50 [3] [µM],TGI [3] [µM],GI50 [4] [µM],TGI [4] [µM],GI50 [5] [µM],TGI [5] [µM],GI50 [6] [µM],TGI [6] [µM],GI50 [7] [µM],TGI [7] [µM],GI50 [8] [µM],TGI [8] [µM],GI50 [9] [µM],TGI [9] [µM],GI50 [10] [µM],TGI [10] [µM]
CCOC(=O)C1=C(C)N(N)C(=S)NC1c1ccc(C)cc1 (stereo not drawn),21.6,> 100,40.2,> 100,14.8,72.2,64.4,> 100,33.8,> 100,36.2,> 100,0.811,27.1,13.1,30.4,49.8,> 100,28.3,> 100
CCOC(=O)N1CCN(C(=O)c2ccc(C(F)(F)F)nc2Nc2cc(Cl)ccc2C)CC1,6.31,> 100,17.4,88.9,5.86,26.7,11.2,31.2,20.5,68.6,27.2,> 100,11.6,30.1,10.1,23.2,18.9,> 100,7.74,65.7
Cc1ccc(Nc2nc(N)c(C(=O)c3ccc(C#N)cc3)s2)cc1,0.0685,> 100,10.4,> 78.8,0.0779,–,0.338,> 87.1,1.6,> 93.5,33.3,> 100,1.59,> 53.9,0.32,10.7,0.398,> 100,0.0544,> 100
O=C(N/N=C\c1cc(Br)ccc1O)c1ccncc1,3.37,> 100,–,–,5.36,> 100,1.97,> 100,1.86,32.6,2.33,15.9,1.81,> 100,2.6,21.8,0.423,> 100,2.45,> 100
Cc1n(Cc2ccc3ccccc3c2)cc[n+]1Cc1ccc2ccccc2c1,0.478,4.51,1.77,5.1,0.544,2.38,0.592,2.04,1.85,10.4,0.588,2.58,0.717,2.27,0.628,1.87,1.87,7.19,0.552,2.47
COc1cc(NC(C)CCCN)c2nccc(C)c2c1OC (stereo not drawn),19.2,53.9,19.8,45.8,17.1,32.7,16.7,35.1,18.8,43,13.7,29.4,4.85,17.8,3.97,15.7,15.4,48,20.8,60.7
CCN(CC)CCNCC(=O)Oc1ccc(/C=C/C(=O)CC(=O)/C=C/c2ccc(OC(=O)CNCCN(CC)CC)c(OC)c2)cc1OC,28.7,> 100,6.72,23.5,2.48,12.4,3.5,31.6,6.97,22.1,3.58,16.9,2.1,4.36,2.57,9.65,–,–,3.14,> 100
CC(=O)Oc1ccc(Nc2c3ccccc3nc3ccccc23)cc1,1.45,> 100,1.68,6.22,2.17,8.16,1.88,10.5,0.675,3.08,1.51,4.31,1.97,14.3,0.984,2.15,–,–,0.355,> 100
COC(=O)[C@@H](NC(=O)[C@@H](OC)[C@@H]1Cc2cc3cc(OC4CC(OC5CC(O)C(O)C(C)O5)C(O)C(C)O4)c(C)c(O)c3c(O)c2C(=O)[C@H]1OC1CC(OC2CC(OC3CC(C)(O)C(O)C(C)O3)C(O)C(C)O2)C(O)C(C)O1)C(C)C (stereo partly drawn),0.139,> 32.5,0.208,> 32.5,0.13,> 32.5,0.154,> 32.5,0.109,0.963,0.128,8.91,0.206,> 32.5,0.0727,0.408,0.122,> 32.5,0.0174,5.08
